pEC50: −log10 of the molar value.
Target: T1, human cloned CHRM4 receptor (Homo sapiens, UniProt P08173)
T1 construct: expressed in transfected cells; host or cells: CHO-K1 (M4_CHO)
T1 sequence (P08173 1-479): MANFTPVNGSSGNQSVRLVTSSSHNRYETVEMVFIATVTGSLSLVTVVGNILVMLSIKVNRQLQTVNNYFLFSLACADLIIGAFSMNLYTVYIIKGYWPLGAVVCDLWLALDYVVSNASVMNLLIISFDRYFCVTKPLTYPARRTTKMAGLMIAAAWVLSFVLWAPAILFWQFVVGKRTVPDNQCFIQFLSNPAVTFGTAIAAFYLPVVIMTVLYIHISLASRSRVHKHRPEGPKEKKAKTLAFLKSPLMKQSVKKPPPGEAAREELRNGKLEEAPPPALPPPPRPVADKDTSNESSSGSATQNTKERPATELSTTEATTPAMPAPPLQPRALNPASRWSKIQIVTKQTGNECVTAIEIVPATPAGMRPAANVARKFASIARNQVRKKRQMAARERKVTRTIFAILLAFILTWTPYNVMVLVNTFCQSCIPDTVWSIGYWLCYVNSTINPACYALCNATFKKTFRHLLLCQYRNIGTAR
Experiment: CHRM4 Ca++ Flux Assay (M4_CHO cells, agonist mode)
Type: cell-based
Conditions: for Emax: Percent Activity (PA), read-out: M4 FDSS PA %; for pEC50: geometric mean if tested more than once, read-out: M4 FDSS EC50
How it was run: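 CHO-K1 cells stably expressing human M4 were dye-loaded, then held 60 min at RT in Ca/Mg-free HBSS buffer with 20 μM ATP. Ca++ traces were recorded over 3 min after an 11-point compound series in triplicate, agonist mode, with a four-parameter fit. Percent activity is relative to the carbachol EC100; repeat tests are geometric means.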

Compound | Emax [%] | pEC50
Fc1ccc(OC2CC3(COC3)C2)c(C2CCN([C@@H]3COC4(C3)CN(c3nnco3)C4)CC2)c1 [Example 2L, (S)-7-(4-(2-((2-oxaspiro[3.3]heptan-6-yl)oxy)-5-fluorophenyl)piperidin-1-yl)-2-(1,3,4-oxadiazol-2-yl)-5-oxa-2-azaspiro[3.4]octane] | 81 | 7.30
Fc1ccc(OC[C@H]2CCCO2)c(C2CCN([C@@H]3COC4(C3)CN(c3nnco3)C4)CC2)c1 [Example 2M, (S)-7-(4-(5-fluoro-2-(((R)-tetrahydrofuran-2-yl)methoxy)phenyl)piperidin-1-yl)-2-(1,3,4-oxadiazol-2-yl)-5-oxa-2-azaspiro[3.4]octane] | 58 | 6.84
CCC1(COc2ccc(F)cc2C2CCN([C@@H]3COC4(C3)CN(c3nnco3)C4)CC2)COC1 [Example 2P, (S)-7-(4-(2-((3-ethyloxetan-3-yl)methoxy)-5-fluorophenyl)piperidin-1-yl)-2-(1,3,4-oxadiazol-2-yl)-5-oxa-2-azaspiro[3.4]octane] | 75 | 7.07
Fc1ccc(OCC2CC3(COC3)C2)c(C2CCN([C@@H]3COC4(C3)CN(c3nnco3)C4)CC2)c1 [Example 2S, (S)-7-(4-(2-((2-oxaspiro[3.3]heptan-6-yl)methoxy)-5-fluorophenyl)piperidin-1-yl)-2-(1,3,4-oxadiazol-2-yl)-5-oxa-2-azaspiro[3.4]octane] | 68 | 6.62
CCc1nnc(COc2ccc(F)cc2C2CCN([C@@H]3COC4(C3)CN(c3nnco3)C4)CC2)s1 [Example 2T, (S)-7-(4-(2-((5-ethyl-1,3,4-thiadiazol-2-yl)methoxy)-5-fluorophenyl)piperidin-1-yl)-2-(1,3,4-oxadiazol-2-yl)-5-oxa-2-azaspiro[3.4]octane] | 89 | 8.70
OC1(COc2ccc(F)cc2C2CCN([C@@H]3COC4(C3)CN(c3nnco3)C4)CC2)COC1 [Example 2U, (S)-3-((2-(1-(2-(1,3,4-oxadiazol-2-yl)-5-oxa-2-azaspiro[3.4]octan-7-yl)piperidin-4-yl)-4-fluorophenoxy)methyl)oxetan-3-ol] | 86 | 7.92
CC(C)(O)CCOc1cc(F)ccc1C1CCN([C@@H]2COC3(C2)CN(c2nncs2)C3)CC1 [Example 5V, (S)-4-(2-(1-(2-(1,3,4-thiadiazol-2-yl)-5-oxa-2-azaspiro[3.4]octan-7-yl)piperidin-4-yl)-5-fluorophenoxy)-2-methylbutan-2-ol] | 40 | 6.60
Fc1ccc(OC2CC3(COC3)C2)c(C2CCN([C@@H]3COC4(C3)CN(c3nncs3)C4)CC2)c1 [Example 5W, (S)-7-(4-(2-((2-oxaspiro[3.3]heptan-6-yl)oxy)-5-fluorophenyl)piperidin-1-yl)-2-(1,3,4-thiadiazol-2-yl)-5-oxa-2-azaspiro[3.4]octane] | 85 | 6.98
Fc1ccc(OC[C@H]2CCOC2)c(C2CCN([C@@H]3COC4(C3)CN(c3nncs3)C4)CC2)c1 [Example 5X, (S)-7-(4-(5-fluoro-2-(((S)-tetrahydrofuran-3-yl)methoxy)phenyl)piperidin-1-yl)-2-(1,3,4-thiadiazol-2-yl)-5-oxa-2-azaspiro[3.4]octane] | 71 | 7.24
CC(C)(O)COc1ccccc1C1CCN([C@@H]2COC3(C2)CN(c2ncns2)C3)CC1 [Example 5Y, (S)-1-(2-(1-(2-(1,2,4-thiadiazol-5-yl)-5-oxa-2-azaspiro[3.4]octan-7-yl)piperidin-4-yl)phenoxy)-2-methylpropan-2-ol] | 64 | 6.96
Fc1ccc(OC2CCOCC2)c(C2CCN([C@@H]3COC4(C3)CN(c3ncon3)C4)CC2)c1 [Example 6A, (S)-7-(4-(5-fluoro-2-((tetrahydro-2H-pyran-4-yl)oxy)phenyl)piperidin-1-yl)-2-(1,2,4-oxadiazol-3-yl)-5-oxa-2-azaspiro[3.4]octane] | 74 | 7.92
Fc1ccc(OC2COC2)c(C2CCN([C@@H]3COC4(C3)CN(c3ncon3)C4)CC2)c1 [Example 6B, (S)-7-(4-(5-fluoro-2-(oxetan-3-yloxy)phenyl)piperidin-1-yl)-2-(1,2,4-oxadiazol-3-yl)-5-oxa-2-azaspiro[3.4]octane] | 79 | 8.10
Fc1ccc(OC2CC3(COC3)C2)c(C2CCN([C@@H]3COC4(C3)CN(c3ncon3)C4)CC2)c1 [Example 6C, (S)-7-(4-(2-((2-oxaspiro[3.3]heptan-6-yl)oxy)-5-fluorophenyl)piperidin-1-yl)-2-(1,2,4-oxadiazol-3-yl)-5-oxa-2-azaspiro[3.4]octane] | 74 | 7.36
Fc1ccc(OC2CC3(COC3)C2)c(C2CCN([C@H]3COC4(C3)CN(c3nnco3)C4)CC2)c1 [Example 7A, (R)-7-(4-(2-((2-oxaspiro[3.3]heptan-6-yl)oxy)-5-fluorophenyl)piperidin-1-yl)-2-(1,3,4-oxadiazol-2-yl)-5-oxa-2-azaspiro[3.4]octane] | 42 | 5.85

From patent publication US11485742B2, “2-azaspiro[3.4]octane derivatives as M4 agonists” (NOVARTIS AG, priority 2019, dated 2022)
